# Laboratory results as given in US10787457B2 (priority 2015, dated 2020).
# Conditions: mouse hepatic microsome 0.25 mg/mL; 1 μM; 37° C. 30 minutes; NADPH-generating system
smiles,measurement,value
"Cc1ccc(-c2nn(C(C)(C)C)c3ncnc(N)c23)cc1 [Compound 4 of Comparative Examples, 1-(tert-butyl)-3-(p-tolyl)pyrazolo[3,4-d]pyrimidin-4-amine]",percentage of the remaining tested compounds (remaining %),0%
